The text below walks through data of patent publication US4777143A, “Method of detecting carboxylic acids in a specimen” (priority 1986, dated 1988).

Read-outs that look alike come from different tables or passages of the source.

Series [1] in a line: Guaiac solubility in solvents / reagent solubility in water. How it is done: Color developing reagent was prepared as follows. […] Four ml of a given solvent as indicated in Table 2 were added and the guaiac was allowed to dissolve to the extent possible.
Subsequently, 48 μl of 80% cumene hydroperoxide was added to each tube (except to that containing the water-only sample) to make a complete color developing reagent (solvent, chromogen, oxidant) for testing.

Series [2] can be described thus: Water miscibility of solvents. On the set-up: key: -: Where phase separation was visible; +: otherwise. Conditions: 0.5 ml water + 0.5 ml solvent. The class given is physicochemical. How it is done: Various solvents were tested for their utility with regard to (1) water miscibility, (2) guaiac solubility and (3) color development. Water miscibility was evaluated by admixing 0.5 ml of water with 0.5 ml each solvent, and noting any phase separation. Where phase separation was visible, a "-" appears in Table 2; otherwise, a "+" appears.

For `CCCCCCCCO` [n-Octanol], in series [1], the “GUAIAC SOLUBILITY” value is “+++”. The “WATER MISCIBILITY” value in series [2] is reported as “-”.

On to `ClCCl` [Dichloromethane], for which the “GUAIAC SOLUBILITY” value in series [1] (noted visually) was “++”. Further, in series [2], the “WATER MISCIBILITY” value is “-”.

`OCCO` [Ethylene Glycol]: in series [1] (noted visually), the “GUAIAC SOLUBILITY” value is on record as “+++”. Besides, the “WATER MISCIBILITY” value in series [2] is “+”.

On to `CC(C)O` [Isopropanol], for which the “GUAIAC SOLUBILITY” value in series [1] (noted visually) was “+++”. Besides, the “WATER MISCIBILITY” value in series [2] is reported as “+”.

`CCCCCCCC` [n-Octane]: the “GUAIAC SOLUBILITY” value in series [1] (noted visually) was “-”. In addition, in series [2], the “WATER MISCIBILITY” value is “-”.

On to `CCCCCO` [n-Pentanol], for which the “GUAIAC SOLUBILITY” value in series [1] is reported as “+++”. Also, the “WATER MISCIBILITY” value in series [2] is given as “-”.

Turning to `CC(=O)CC(C)(C)O` [4-hydroxy, 4 methyl-pentanone], in series [1], the “GUAIAC SOLUBILITY” value is given as “+++”.

Turning to `Cc1ccccc1` [Toluene], the “WATER MISCIBILITY” value in series [2] is reported as “-”.

For the molecule `CC(Cl)(Cl)Cl` [1,1,1-trichloroethane], in series [1] (noted visually), the “GUAIAC SOLUBILITY” value is on record as “++”. Also, in series [2], the “WATER MISCIBILITY” value is “-”.

In the case of `CC(C)c1ccccc1` [Cumene], the “GUAIAC SOLUBILITY” value in series [1] (noted visually) was “+”. Further, the “WATER MISCIBILITY” value in series [2] is recorded as “-”.

For the molecule `CC(C)(OO)c1ccccc1` [cumene hydroperoxide, reference compound], in series [1] (water), the “solubility of cumene hydroperoxide in water” value is recorded as “essentially insoluble in water”.

Turning to `CCCCCCCCOC(C)=O` [Octyl Acetate], the “GUAIAC SOLUBILITY” value in series [1] is “++”. For the same molecule, the “WATER MISCIBILITY” value in series [2] was “-”.

As for `CCO` [Ethanol], the “GUAIAC SOLUBILITY” value in series [1] was “+++”. Moreover, the “WATER MISCIBILITY” value in series [2] was “+”.

`COC(=O)CC(C)=O` [Methyl-Acetoacetate]: in series [1] (noted visually), the “GUAIAC SOLUBILITY” value is reported as “+++”. The “WATER MISCIBILITY” value in series [2] is reported as “+”.

As to `CCOC(C)=O` [Ethyl Acetate], the “GUAIAC SOLUBILITY” value in series [1] (noted visually) is recorded as “++”. In addition, in series [2], the “WATER MISCIBILITY” value is reported as “-”.

Take `CCCCCCCO` [n-Heptanol]: the “GUAIAC SOLUBILITY” value in series [1] (noted visually) was “+++”. The “WATER MISCIBILITY” value in series [2] was “-”.

In the case of `CCC(C)=O` [Methyl Ethyl Ketone], the “WATER MISCIBILITY” value in series [2] is recorded as “+”.

As to Hexanes, the “GUAIAC SOLUBILITY” value in series [1] was “-”. The “WATER MISCIBILITY” value in series [2] is “-”.

For the molecule `CC(C)=O` [Acetone], the “GUAIAC SOLUBILITY” value in series [1] (noted visually) is recorded as “+++”. Besides, the “WATER MISCIBILITY” value in series [2] was “+”.

In the case of `CCCCCCO` [n-Hexanol], the “WATER MISCIBILITY” value in series [2] was “-”.

As to `CC(C)c1ccc(CO)cc1` [4-Isopropyl-Benzyl Alcohol], the “GUAIAC SOLUBILITY” value in series [1] (noted visually) is recorded as “+++”. In addition, in series [2], the “WATER MISCIBILITY” value is “-”.

Regarding `OCc1ccccc1` [Benzyl Alcohol], the “GUAIAC SOLUBILITY” value in series [1] was “+++”. Besides, the “WATER MISCIBILITY” value in series [2] is reported as “-”.
